# Assay results: PubChem BioAssay (NCI)
#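 Five compound concentrations were applied to cells in 96-well plates for 48 hours; endpoints were derived by simple linear interpolation of the resulting dose-response curve. TGI is the concentration that stops growth completely.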
# Experiments:
# Test in all cases: NCI-60 cell line screen, 48 h
# OVCAR-5 ovarian = test system: OVCAR-5 ovarian
# SK-MEL-5 melanoma = test system: SK-MEL-5 melanoma
# OVCAR-3 ovarian = test system: OVCAR-3 ovarian
# BT-549 breast = test system: BT-549 breast
# HT29 colon = test system: HT29 colon
# SK-MEL-2 melanoma = test system: SK-MEL-2 melanoma
# M14 melanoma = test system: M14 melanoma
# PC-3 prostate = test system: PC-3 prostate
# SN12C renal = test system: SN12C renal
# HS 578T breast = test system: HS 578T breast
# COLO 205 colon = test system: COLO 205 colon
# SNB-19 CNS = test system: SNB-19 CNS
# CAKI-1 renal = test system: CAKI-1 renal
# SK-OV-3 ovarian = test system: SK-OV-3 ovarian
# MDA-N = test system: MDA-N
# ACHN renal = test system: ACHN renal
# HCT-15 colon = test system: HCT-15 colon
# HOP-92 NSCLC = test system: HOP-92 NSCLC
# RPMI-8226 leukemia = test system: RPMI-8226 leukemia
# OVCAR-4 ovarian = test system: OVCAR-4 ovarian
# DU-145 prostate = test system: DU-145 prostate
# TK-10 renal = test system: TK-10 renal
# SK-MEL-28 melanoma = test system: SK-MEL-28 melanoma
# A549 NSCLC = test system: A549 NSCLC
# MDA-MB-231 breast = test system: MDA-MB-231 breast
# RXF 393 renal = test system: RXF 393 renal
# NCI-H522 lung = test system: NCI-H522 lung
# IGROV1 ovarian = test system: IGROV1 ovarian
# UACC-62 melanoma = test system: UACC-62 melanoma
# SF-295 CNS = test system: SF-295 CNS
# T-47D breast = test system: T-47D breast
# 786-0 renal = test system: 786-0 renal
# K-562 leukemia = test system: K-562 leukemia
# EKVX NSCLC = test system: EKVX NSCLC
# SW-620 colon = test system: SW-620 colon
# HCT-116 colon = test system: HCT-116 colon
# A498 renal = test system: A498 renal
# NCI-H226 lung = test system: NCI-H226 lung
# MALME-3M melanoma = test system: MALME-3M melanoma
# UACC-257 melanoma = test system: UACC-257 melanoma
# NCI/ADR-RES ovarian = test system: NCI/ADR-RES ovarian
# U251 CNS = test system: U251 CNS
# NCI-H23 lung = test system: NCI-H23 lung
# HOP-62 NSCLC = test system: HOP-62 NSCLC
# OVCAR-8 ovarian = test system: OVCAR-8 ovarian
# KM12 colon = test system: KM12 colon
# SF-268 CNS = test system: SF-268 CNS
# MCF7 breast = test system: MCF7 breast
# SF-539 CNS = test system: SF-539 CNS
# MDA-MB-435 = test system: MDA-MB-435
# NCI-H460 lung = test system: NCI-H460 lung
# UO-31 renal = test system: UO-31 renal
# MOLT-4 leukemia = test system: MOLT-4 leukemia
# HL-60(TB) leukemia = test system: HL-60(TB) leukemia
# CCRF-CEM leukemia = test system: CCRF-CEM leukemia
# SNB-75 CNS = test system: SNB-75 CNS
# HCC-2998 colon = test system: HCC-2998 colon
# LOX IMVI melanoma = test system: LOX IMVI melanoma
structure (smiles),measurement,setting,value
Cc1ncc(CSC(=N)N)n1Cc1ccccc1,TGI,OVCAR-5 ovarian,> 100 µM
same,TGI,SK-MEL-5 melanoma,> 100 µM
same,TGI,OVCAR-3 ovarian,> 100 µM
same,TGI,BT-549 breast,> 100 µM
same,TGI,HT29 colon,> 100 µM
same,TGI,SK-MEL-2 melanoma,> 100 µM
same,TGI,M14 melanoma,> 100 µM
same,TGI,PC-3 prostate,> 100 µM
same,TGI,SN12C renal,> 100 µM
same,TGI,HS 578T breast,> 100 µM
same,TGI,COLO 205 colon,> 100 µM
same,TGI,SNB-19 CNS,> 100 µM
same,TGI,CAKI-1 renal,> 100 µM
same,TGI,SK-OV-3 ovarian,> 100 µM
same,TGI,MDA-N,> 100 µM
same,TGI,ACHN renal,> 100 µM
same,TGI,HCT-15 colon,> 100 µM
same,TGI,HOP-92 NSCLC,> 100 µM
same,TGI,RPMI-8226 leukemia,83.2 µM
same,TGI,OVCAR-4 ovarian,> 100 µM
same,TGI,DU-145 prostate,> 100 µM
same,TGI,TK-10 renal,> 100 µM
same,TGI,SK-MEL-28 melanoma,> 100 µM
same,TGI,A549 NSCLC,> 100 µM
same,TGI,MDA-MB-231 breast,> 100 µM
same,TGI,RXF 393 renal,> 100 µM
same,TGI,NCI-H522 lung,64.4 µM
same,TGI,IGROV1 ovarian,> 100 µM
same,TGI,UACC-62 melanoma,> 100 µM
same,TGI,SF-295 CNS,> 100 µM
same,TGI,T-47D breast,> 100 µM
same,TGI,786-0 renal,> 100 µM
same,TGI,K-562 leukemia,> 100 µM
same,TGI,EKVX NSCLC,> 100 µM
same,TGI,SW-620 colon,> 100 µM
same,TGI,HCT-116 colon,> 100 µM
same,TGI,A498 renal,> 100 µM
same,TGI,NCI-H226 lung,> 100 µM
same,TGI,MALME-3M melanoma,> 100 µM
same,TGI,UACC-257 melanoma,> 100 µM
same,TGI,NCI/ADR-RES ovarian,> 100 µM
same,TGI,U251 CNS,> 100 µM
same,TGI,NCI-H23 lung,> 100 µM
same,TGI,HOP-62 NSCLC,> 100 µM
same,TGI,OVCAR-8 ovarian,> 100 µM
same,TGI,KM12 colon,> 100 µM
same,TGI,SF-268 CNS,> 100 µM
same,TGI,MCF7 breast,> 100 µM
same,TGI,SF-539 CNS,> 100 µM
same,TGI,MDA-MB-435,> 100 µM
same,TGI,NCI-H460 lung,> 100 µM
same,TGI,UO-31 renal,> 100 µM
COC(=O)[C@@H]1COC(=O)N1,TGI,OVCAR-5 ovarian,> 100 µM
same,TGI,SK-MEL-5 melanoma,> 100 µM
same,TGI,OVCAR-3 ovarian,> 100 µM
same,TGI,BT-549 breast,> 100 µM
same,TGI,HT29 colon,> 100 µM
same,TGI,SK-MEL-2 melanoma,> 100 µM
same,TGI,M14 melanoma,> 100 µM
same,TGI,PC-3 prostate,> 100 µM
same,TGI,SN12C renal,> 100 µM
same,TGI,MOLT-4 leukemia,> 100 µM
same,TGI,HS 578T breast,> 100 µM
same,TGI,HL-60(TB) leukemia,> 100 µM
same,TGI,COLO 205 colon,> 100 µM
same,TGI,SNB-19 CNS,> 100 µM
same,TGI,CAKI-1 renal,> 100 µM
same,TGI,SK-OV-3 ovarian,> 100 µM
same,TGI,MDA-N,> 100 µM
same,TGI,ACHN renal,> 100 µM
same,TGI,HCT-15 colon,> 100 µM
same,TGI,HOP-92 NSCLC,> 100 µM
same,TGI,OVCAR-4 ovarian,> 100 µM
same,TGI,DU-145 prostate,> 100 µM
same,TGI,TK-10 renal,> 100 µM
same,TGI,CCRF-CEM leukemia,> 100 µM
same,TGI,SK-MEL-28 melanoma,> 100 µM
same,TGI,A549 NSCLC,> 100 µM
same,TGI,MDA-MB-231 breast,> 100 µM
same,TGI,SNB-75 CNS,> 100 µM
same,TGI,RXF 393 renal,> 100 µM
same,TGI,NCI-H522 lung,> 100 µM
same,TGI,IGROV1 ovarian,> 100 µM
same,TGI,UACC-62 melanoma,> 100 µM
same,TGI,SF-295 CNS,> 100 µM
same,TGI,T-47D breast,> 100 µM
same,TGI,786-0 renal,> 100 µM
same,TGI,K-562 leukemia,> 100 µM
same,TGI,EKVX NSCLC,> 100 µM
same,TGI,SW-620 colon,> 100 µM
same,TGI,HCT-116 colon,> 100 µM
same,TGI,A498 renal,> 100 µM
same,TGI,HCC-2998 colon,> 100 µM
same,TGI,NCI-H226 lung,> 100 µM
same,TGI,MALME-3M melanoma,> 100 µM
same,TGI,UACC-257 melanoma,> 100 µM
same,TGI,LOX IMVI melanoma,> 100 µM
same,TGI,NCI/ADR-RES ovarian,> 100 µM
same,TGI,U251 CNS,> 100 µM
same,TGI,NCI-H23 lung,> 100 µM
same,TGI,HOP-62 NSCLC,> 100 µM
same,TGI,OVCAR-8 ovarian,> 100 µM
same,TGI,KM12 colon,> 100 µM
same,TGI,SF-268 CNS,> 100 µM
same,TGI,MCF7 breast,> 100 µM
same,TGI,SF-539 CNS,> 100 µM
same,TGI,MDA-MB-435,> 100 µM
same,TGI,NCI-H460 lung,> 100 µM
same,TGI,UO-31 renal,> 100 µM
